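Results reflect a 48-hour exposure of cells in 96-well plates to compound at five concentrations. Definition used: TGI = concentration required for complete inhibition of growth.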
Tests used:
Assay in all cases: inhibition of tumour cell growth, NCI panel, 48 h
[1] = system: NCI-H23 lung
[2] = system: UO-31 renal
[3] = system: NCI-H226 lung
[4] = system: HT29 colon
[5] = system: OVCAR-4 ovarian
[6] = system: MCF7 breast
[7] = system: NCI-H522 lung
[8] = system: SNB-75 CNS
[9] = system: BT-549 breast
[10] = system: TK-10 renal
[11] = system: HCT-116 colon
[12] = system: LOX IMVI melanoma
[13] = system: MDA-N
[14] = system: RXF 393 renal
[15] = system: HCC-2998 colon
[16] = system: SK-MEL-28 melanoma
[17] = system: COLO 205 colon
[18] = system: IGROV1 ovarian
[19] = system: U251 CNS
[20] = system: EKVX NSCLC
[21] = system: SK-MEL-2 melanoma
[22] = system: KM12 colon
[23] = system: K-562 leukemia
[24] = system: MDA-MB-231 breast
[25] = system: OVCAR-3 ovarian
[26] = system: SF-295 CNS
[27] = system: T-47D breast
[28] = system: SF-539 CNS
[29] = system: M14 melanoma
[30] = system: SK-MEL-5 melanoma
[31] = system: OVCAR-5 ovarian
[32] = system: CAKI-1 renal
[33] = system: MALME-3M melanoma
[34] = system: NCI/ADR-RES ovarian
[35] = system: SN12C renal
[36] = system: OVCAR-8 ovarian
[37] = system: UACC-257 melanoma
[38] = system: A549 NSCLC
[39] = system: HOP-92 NSCLC
[40] = system: UACC-62 melanoma
[41] = system: HCT-15 colon
[42] = system: MDA-MB-435
[43] = system: ACHN renal
[44] = system: PC-3 prostate
[45] = system: MOLT-4 leukemia
[46] = system: SNB-19 CNS
[47] = system: CCRF-CEM leukemia
[48] = system: SR leukemia
[49] = system: SW-620 colon
[50] = system: 786-0 renal
[51] = system: NCI-H460 lung
[52] = system: SK-OV-3 ovarian
[53] = system: DU-145 prostate
[54] = system: SF-268 CNS
[55] = system: HS 578T breast
[56] = system: A498 renal
[57] = system: HOP-62 NSCLC
[58] = system: HL-60(TB) leukemia

Measured: TGI

O=C(Nc1cc2c(=O)[nH]c3ccccc3c2oc1=O)c1cnccn1
> 100 µM: [1] | [2] | [3] | [4] | [5] | [6] | [7] | [8] | [9] | [10] | [11] | [12] | [13] | [14] | [15] | [16] | [17] | [18] | [19] | [20] | [21] | [22] | [23] | [24] | [25] | [26] | [27] | [28] | [29] | [30] | [31] | [32] | [33] | [34] | [35] | [36] | [37] | [38] | [39] | [40] | [41] | [42] | [43] | [44] | [45] | [46] | [47] | [48] | [49] | [50] | [51] | [52] | [53]

Cn1c2c(c3ccccc31)CCN1OCC=C[C@@H](C(=O)O)[C@@H]21
> 100 µM: [2] | [3] | [4] | [5] | [54] | [6] | [55] | [7] | [8] | [10] | [11] | [12] | [13] | [14] | [15] | [16] | [17] | [18] | [19] | [20] | [21] | [22] | [56] | [24] | [25] | [27] | [28] | [29] | [30] | [31] | [32] | [33] | [57] | [34] | [35] | [36] | [58] | [37] | [38] | [39] | [40] | [41] | [42] | [43] | [44] | [46] | [48] | [49] | [50] | [51] | [52] | [53]
